From PMC6002460, “Pharmacological evaluation of new constituents of “Spice”: synthetic cannabinoids based on indole, indazole, benzimidazole and carbazole scaffolds” (Forensic Toxicology, 2018)
Entries after “also recorded” stand apart in the source; their conditions may differ. Where two headings read alike, the source gives them in different places.

Columns and labels:
human GPR55 = target: T1, human GPR55 (Homo sapiens, UniProt Q9Y2T6); experiment: β-Arrestin PathHunter assay, recombinant CHO cells expressing GPR55; format: cell-based; conditions: for Human GPR55 % activation / Human GPR55 % inhibition: value in parentheses; for Human GPR55 % inhibition: antagonist mode versus LPI 1 µM
T1 construct: host or cells: CHO cells
T1 sequence (Q9Y2T6 whole entry): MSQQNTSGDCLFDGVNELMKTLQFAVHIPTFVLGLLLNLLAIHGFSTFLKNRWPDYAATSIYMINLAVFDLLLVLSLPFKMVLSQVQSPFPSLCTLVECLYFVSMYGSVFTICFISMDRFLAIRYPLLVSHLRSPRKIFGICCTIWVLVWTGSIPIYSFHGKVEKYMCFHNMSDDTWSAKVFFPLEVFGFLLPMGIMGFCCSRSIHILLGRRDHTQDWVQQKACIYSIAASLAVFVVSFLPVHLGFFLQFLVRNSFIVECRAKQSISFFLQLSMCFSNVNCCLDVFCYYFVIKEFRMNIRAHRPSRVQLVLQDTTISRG
Description: (§1) β-Arrestin assays were performed in recombinant CHO cells expressing either the human GPR18 or the human GPR55 as described before using the β-galactosidase enzyme fragment complementation technology (β-arrestin PathHunter™ assay; DiscoverX, Fremont, CA, USA).
(§2) The orphan receptors GPR18 and GPR55 can interact with certain natural and synthetic cannabinoids. […] Therefore, we investigated the new series of indole, indazole, benzimidazole and carbazole-derived structures in β-arrestin assays at GPR18 and GPR55 (Table 2). […] For the lipophilic substitutions, the following rank order of potency was observed: ethyl > methyl > chloro > fluoro. Therefore, it can be concluded that a lipophilic substitution in position 4 of the naphthyl residue was a requirement for GPR55 inhibition.

human CB1 receptor [1] = target: T2, human CB1 receptor (Homo sapiens, UniProt P21554); experiment: biochemical; format: binding; conditions: [3H]CP55,940 0.1 nM, CHO cell membranes; read-out: Ki ± SEM Human CB1
T2 construct: expressed in transfected cells; host or cells: CHO cells (membrane preparations)
T2 sequence (P21554 whole entry): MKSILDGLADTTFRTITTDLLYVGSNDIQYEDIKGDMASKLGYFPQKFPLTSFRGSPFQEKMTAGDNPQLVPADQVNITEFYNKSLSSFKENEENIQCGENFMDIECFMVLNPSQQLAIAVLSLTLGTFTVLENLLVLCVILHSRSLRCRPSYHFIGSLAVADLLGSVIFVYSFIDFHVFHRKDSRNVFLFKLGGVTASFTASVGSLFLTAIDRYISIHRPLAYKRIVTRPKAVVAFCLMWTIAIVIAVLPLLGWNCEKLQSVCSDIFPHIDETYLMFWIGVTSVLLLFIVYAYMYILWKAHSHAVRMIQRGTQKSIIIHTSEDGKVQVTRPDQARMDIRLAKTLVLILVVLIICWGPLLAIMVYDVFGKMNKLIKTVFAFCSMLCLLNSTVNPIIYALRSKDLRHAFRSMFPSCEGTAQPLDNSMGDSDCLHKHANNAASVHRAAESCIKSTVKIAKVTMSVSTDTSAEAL

human GPR18 = target: T3, human GPR18 (Homo sapiens, UniProt Q14330); experiment: β-Arrestin PathHunter assay, recombinant CHO cells expressing GPR18; format: cell-based; conditions: for Human GPR18 % activation / Human GPR18 % inhibition: value in parentheses
T3 construct: host or cells: CHO cells
T3 sequence (Q14330 1-331): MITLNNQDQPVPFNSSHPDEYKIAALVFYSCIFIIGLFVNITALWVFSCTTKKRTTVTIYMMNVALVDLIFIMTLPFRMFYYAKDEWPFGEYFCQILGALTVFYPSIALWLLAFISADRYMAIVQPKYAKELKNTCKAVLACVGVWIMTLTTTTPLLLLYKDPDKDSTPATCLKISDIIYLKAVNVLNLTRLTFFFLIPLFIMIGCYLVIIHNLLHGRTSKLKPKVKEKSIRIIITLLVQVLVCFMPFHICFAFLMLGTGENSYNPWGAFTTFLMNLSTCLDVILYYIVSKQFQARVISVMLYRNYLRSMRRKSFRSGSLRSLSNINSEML
Description: as §1, §2

CB2 receptor = conditions: membrane potential assay, cited from earlier work
human CB2 receptor [2] = target: T4, human CB2 receptor (Homo sapiens, UniProt P34972); experiment: biochemical; format: binding; conditions: [3H]CP55,940 0.1 nM, CHO cell membranes; read-out: Ki ± SEM Human CB2
T4 construct: expressed in transfected cells; host or cells: CHO cells (membrane preparations)
T4 sequence (P34972 whole entry): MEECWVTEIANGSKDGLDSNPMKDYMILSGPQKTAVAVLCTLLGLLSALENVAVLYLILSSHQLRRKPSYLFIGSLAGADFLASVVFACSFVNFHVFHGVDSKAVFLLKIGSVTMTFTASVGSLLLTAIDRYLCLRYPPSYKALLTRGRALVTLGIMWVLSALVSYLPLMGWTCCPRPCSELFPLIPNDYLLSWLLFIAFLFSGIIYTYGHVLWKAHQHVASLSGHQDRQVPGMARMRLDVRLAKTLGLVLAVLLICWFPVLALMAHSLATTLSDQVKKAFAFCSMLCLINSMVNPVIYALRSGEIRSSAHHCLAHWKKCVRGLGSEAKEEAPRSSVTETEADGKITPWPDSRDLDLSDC

CB1 receptor = conditions: membrane potential assay, cited from earlier work
human CB2 receptor [3] = target: T4, human CB2 receptor; experiment: cAMP accumulation assay, CHO cells stably expressing CB2; format: cell-based
Description: (§3) cAMP accumulation assays were performed also as previously described. Briefly, CHO cells stably expressing the respective human CB receptor subtype CB1 or CB2 were seeded overnight. […] After incubation for 15 min the buffer was removed, and the cells were lyzed. The amount of cAMP was determined in a radioligand binding assay by incubating 50 µL of the cell lysate with 3 nM [^3H]cAMP in the presence of protein preparations from bovine adrenal glands (cAMP binding protein). Bound and unbound radioligand were separated by rapid filtration through GF/B filters, and radioactivity was determined by liquid scintillation counting. To test for antagonistic activity, test compounds were added to Hank’s buffered salt solution (HBSS) containing 10% dimethyl sulfoxide (DMSO), 10 min after the application of Ro-20-1724, and the mixture was incubated for 20 min at 37 °C.
(§4) As a next step, we investigated the compounds in cAMP accumulation assays, to obtain information on their functionality (Fig. 3). CB receptors are Gi protein-coupled and thus reduce the levels of cAMP in the cells upon activation.

human CB1 receptor [4] = target: T2, human CB1 receptor; experiment: cAMP accumulation assay, CHO cells stably expressing CB1; format: cell-based; conditions: for EC50: forskolin 10 µM, read-out: EC50 CB1 receptor activation, cAMP accumulation
Description: as §3, §4

[5] = agonist mode, read-out: Human GPR55 EC50
[6] = antagonist mode versus lysophosphatidylinositol (LPI, 1 µM), read-out: Human GPR55 IC50
[7] = agonist mode, read-out: Human GPR18 EC50

| SMILES | EC50 (human GPR55) [nM] | IC50 (human GPR55) [nM] | Human GPR55 % activation (human GPR55; agonist mode) | Ki (human CB1 receptor [1]) [nM] | EC50 (human GPR18) [nM] | IC50 (human GPR18) [nM] | Human GPR18 % activation (human GPR18; agonist mode) [%] | EC50 (CB2 receptor; ref Banister et al. [38]) [nM] | Ki (human CB2 receptor [2]) [nM] | EC50 (CB1 receptor; ref Banister et al. [38]) [nM] | Human GPR55 % inhibition (human GPR55) [%] | Human GPR18 % inhibition (human GPR18; antagonist mode) | EC50 (CB2 receptor; ref Banister et al. [42]) [nM] | EC50 (CB1 receptor; ref Banister et al. [42]) [nM] | also measured |
| --- | --- | --- | --- | --- | --- | --- | --- | --- | --- | --- | --- | --- | --- | --- | --- |
| COC(=O)[C@@H](NC(=O)c1nn(CCCCCF)c2ccccc12)C(C)C [compound 8, 5F-AMB] | > 10000 | > 10000 | 14% | 1.13 ± 0.48 | > 10000 | > 10000 | 1 | 10 | 1.38 ± 0.22 | 1.9 | – | – | – | – | – |
| COC(=O)[C@@H](NC(=O)c1nn(Cc2ccc(F)cc2)c2ccccc12)C(C)C [compound 9, FUB-AMB] | > 10000 | > 10000 | 4% | 0.387 ± 0.135 | > 10000 | > 10000 | – | 18 | 0.536 ± 0.115 | 2 | 17 | 11% | – | – | – |
| COC(=O)[C@@H](NC(=O)c1nn(CC2CCCCC2)c2ccccc12)C(C)C [compound 10] | > 10000 | > 10000 | 2% | 0.339 ± 0.073 | > 10000 | > 10000 | 19 | 29 | 0.301 ± 0.092 | 5.1 | 31 | > 10 (10%) | – | – | – |
| COC(=O)[C@@H](NC(=O)c1cn(CC2CCCCC2)c2ccccc12)C(C)(C)C [compound 13, MDMB-CHMICA] | > 10000 | > 10000 | 5% | 0.41 ± 0.141 | > 10000 | 14100 ± 3100 | 5 | 71 | 0.354 ± 0.05 | 10 | 38 | – | – | – | – |
| COC(=O)[C@@H](NC(=O)c1nn(CC2CCCCC2)c2ccccc12)C(C)(C)C [compound 14] | > 10000 | 10300 ± 1700 | – | 0.135 ± 0.028 | > 10000 | ~10000 | 27 | 128 | 0.222 ± 0.034 | 10 | – | 51% | – | – | – |
| CC(C)[C@H](NC(=O)c1cn(CCCCCF)c2ccccc12)C(N)=O [compound 15, 5F-AB-PICA] | > 10000 | > 10000 | > 10 (10%) | 35 ± 7.7 | > 10000 | > 10000 | 23 | – | 89 ± 33.2 | – | – | – | 8.9 | 5.2 | – |
| CC(C)[C@H](NC(=O)c1nn(CCCCCF)c2ccccc12)C(N)=O [compound 16, 5F-AB-PINACA] | > 10000 | > 10000 | 15% | 4.96 ± 1.37 | > 10000 | > 10000 | 12 | – | 3.77 ± 0.25 | – | – | > 10 (10%) | 2.6 | 0.48 | – |
| CC(C)(C)[C@H](NC(=O)c1cn(CCCCCF)c2ccccc12)C(N)=O [compound 21, 5F-ADBICA] | > 10000 | > 10000 | 8% | 2.72 ± 0.35 | > 10000 | > 10000 | 27 | – | 1.83 ± 0.11 | – | – | – | 1.2 | 0.77 | – |
| CC(C)(C)[C@H](NC(=O)c1nn(CCCCCF)c2ccccc12)C(N)=O [compound 23, 5F-ADB-PINACA] | > 10000 | > 10000 | 18% | 1.43 ± 0.69 | > 10000 | > 10000 | 9 | – | 0.694 ± 0.078 | – | – | 21% | 2.1 | 0.24 | – |
| CC(C)(C)[C@H](NC(=O)c1nn(Cc2ccc(F)cc2)c2ccccc12)C(N)=O [compound 24, ADB-FUBINACA] | > 10000 | > 10000 | 7% | – | > 10000 | > 10000 | 7 | – | 0.339 ± 0.059 | – | – | 16% | 3.5 | 1.2 | – |
| O=C(c1ccc2c(c1)c1ccccc1n2CCCCCF)c1cccc2ccccc12 [compound 40, EG-2201] | – | – | – | 22.4 ± 12.8 | – | – | 3 | – | 4.36 ± 2.91 | – | 3 | 7% | – | – | EC50 (human GPR55; [5]): > 10000 nM; IC50 (human GPR55; [6]): > 10000 nM; Emax (human CB2 receptor [3]; CHO, read-out: efficacy at CB2 compared to maximum response of CP55,940, cAMP accumulation): 77%; functional behaviour at CB2 receptor (in words) (human CB2 receptor [3]; cAMP accumulation): agonistic behavior; EC50 (human CB2 receptor [3]; forskolin 10 µM, read-out: EC50 CB2 receptor activation, cAMP accumulation): 5.65 nM; Emax (human CB1 receptor [4]; CHO, read-out: efficacy at CB1 compared to maximum response of CP55,940, cAMP accumulation): 94%; functional behaviour at CB1 receptor (in words) (human CB1 receptor [4]; cAMP accumulation): agonistic behavior; EC50 (human CB1 receptor [4]): 15.6 nM; EC50 (human GPR18; [7]): > 10000 nM; IC50 (human GPR18; antagonist mode, read-out: Human GPR18 IC50): > 10000 nM |
| COC(=O)C(NC(=O)c1ccc2c(c1)c1ccccc1n2CC1CCCCC1)C(C)(C)C (stereo not shown) [compound 41, MDMB-CHMCZCA] | – | – | – | 5.75 ± 1.65 | – | – | – | – | 6.67 ± 1.4 | – | 25 | – | – | – | EC50 (human GPR55; [5]): > 10000 nM; IC50 (human GPR55; [6]): > 10000 nM; functional behaviour at CB2 receptor (in words) (human CB2 receptor [3]; cAMP accumulation): completely lacked CB2 receptor activation; also recorded: antagonist; CB2 receptor activation in cAMP accumulation assay (in words) (human CB2 receptor [3]; compound at 10 µM, normalized to CP55,940 (1 µM)): failed to evoke an agonistic response; IC50 (human CB2 receptor [3]; read-out: IC50 inhibition of CB2 receptor activation, cAMP accumulation): 807 ± 137 nM; functional behaviour at CB1 receptor (in words) (human CB1 receptor [4]; cAMP accumulation): full efficacy; also recorded: agonist; EC50 (human CB1 receptor [4]): 120 nM; EC50 (human GPR18; [7]): > 10000 nM; IC50 (human GPR18; extrapolated value, full curve could not be determined due to limited solubility, read-out: Human GPR18 IC50 (extrapolated)): 9660 ± 1200 nM |
